pIC50: −log10 of the molar value.
Key:
Colon CXF 280 = assay: CFA, CXF 280; format: cell-based, human; conditions: PDX/CFA
Method: (§1) CFA was performed by Charles River Laboratories (Freiburg, Germany) in 96-well plate format according to a modified two-layer soft agar assay. The origin of the tumor xenografts has been described (Fiebig et al. 1989, incorporated herein by reference). The list of tumors used in this study is detailed in Table 1.

Colon CXF HCT 116 = assay: CFA, CXF HCT 116; format: cell-based, human; conditions: PDX/CFA
Method: as §1

Head & Neck HNXF 908 = assay: CFA, HNXF 908; format: cell-based, human; conditions: PDX/CFA
Method: as §1

[1] = tested on: Leukemia (AML) LEXFAM MV4-11; assay: CFA, LEXFAM MV4-11; format: cell-based, human; conditions: Cell line/CFA
Method: as §1

[2] = tested on: Leukemia (AML) LEXFAM NOMO-1; assay: CFA, LEXFAM NOMO-1; format: cell-based, human; conditions: Cell line/CFA
Method: as §1

[3] = tested on: Lung (NSCLC, adeno) LXFA 629; assay: CFA, LXFA 629; format: cell-based, human; conditions: PDX/CFA
Method: as §1

Lung (SCLC) LXFS 538 = assay: CFA, LXFS 538; format: cell-based, human; conditions: PDX/CFA
Method: as §1

[4] = tested on: Lung (SCLC) LXFS NCI-H727; assay: CFA, LXFS NCI-H727; format: cell-based, human; conditions: Cell line/CFA
Method: as §1

Lung (SCLC) LXFS NCI-H82 = assay: CFA, LXFS NCI-H82; format: cell-based, human; conditions: Cell line/CFA
Method: as §1

Lung (SCLC) LXFS 2156 = assay: CFA, LXFS 2156; format: cell-based, human; conditions: PDX/CFA
Method: as §1

[5] = tested on: Lymphoma (Non-Hodgkin) LYXF MY-LA; assay: CFA, LYXF MY-LA; format: cell-based, human; conditions: Cell line/CFA
Method: as §1

[6] = tested on: Lymphoma (Non-Hodgkin) LYXFNH U-937; assay: CFA, LYXFNH U-937; format: cell-based, human; conditions: Cell line/CFA
Method: as §1

Prostate PRXF MRI-H-1579 = assay: CFA, PRXF MRI-H-1579; format: cell-based, human; conditions: Cell line/CFA
Method: as §1

Pancreas PAXF 736 = assay: CFA, PAXF 736; format: cell-based, human; conditions: PDX/CFA
Method: as §1

Skin SCC VXF A-431 = assay: CFA, VXF A-431; format: cell-based, human; conditions: Cell line/CFA
Method: as §1

[7] = tested on: Cutanous T cell lymphoma MyLa; assay: CFA, MyLa; format: cell-based, human; conditions: Cell line/CFA
Method: as §1

VDAC1/HK2 complex = target: T1, VDAC1/HK2 complex (Homo sapiens, UniProt P52789); assay: Microscale Thermophoresis (MST) dissociation of VDAC1/HK2 complex; format: binding; conditions: cell-free MST; HK2 pre-incubated with 1.5 μM VDAC1
T1 construct: host or cells: E. coli (HK2); sheep liver mitochondria (VDAC1)
T1 sequence (P52789 whole entry, one chain of several): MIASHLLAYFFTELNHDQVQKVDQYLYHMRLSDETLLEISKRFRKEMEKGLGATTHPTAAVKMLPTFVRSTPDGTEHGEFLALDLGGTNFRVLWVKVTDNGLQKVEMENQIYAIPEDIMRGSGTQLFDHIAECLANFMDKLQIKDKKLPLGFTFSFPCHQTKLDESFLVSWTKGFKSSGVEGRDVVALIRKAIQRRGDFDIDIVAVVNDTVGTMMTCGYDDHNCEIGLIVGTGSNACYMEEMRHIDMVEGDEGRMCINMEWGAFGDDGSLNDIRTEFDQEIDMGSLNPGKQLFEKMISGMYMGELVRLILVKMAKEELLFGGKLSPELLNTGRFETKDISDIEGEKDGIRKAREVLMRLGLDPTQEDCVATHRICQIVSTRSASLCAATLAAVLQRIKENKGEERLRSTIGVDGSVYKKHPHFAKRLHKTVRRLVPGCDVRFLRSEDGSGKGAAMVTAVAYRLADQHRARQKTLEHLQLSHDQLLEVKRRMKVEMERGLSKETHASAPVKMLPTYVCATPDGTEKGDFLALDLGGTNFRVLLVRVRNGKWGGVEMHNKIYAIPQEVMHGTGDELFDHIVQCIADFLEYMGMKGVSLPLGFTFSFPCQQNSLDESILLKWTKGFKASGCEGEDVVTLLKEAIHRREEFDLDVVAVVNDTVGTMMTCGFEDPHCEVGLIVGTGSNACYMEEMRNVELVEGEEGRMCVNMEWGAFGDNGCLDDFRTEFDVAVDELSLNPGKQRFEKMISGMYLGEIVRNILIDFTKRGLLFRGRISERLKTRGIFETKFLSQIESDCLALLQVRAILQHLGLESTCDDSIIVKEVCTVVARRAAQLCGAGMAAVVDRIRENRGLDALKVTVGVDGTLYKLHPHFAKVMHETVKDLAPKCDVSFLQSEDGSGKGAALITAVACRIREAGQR
Method: A431 (human skin SCC), HT-297.T (human AK), and HaCaT transformed normal keratinocyte cell lines were from ATCC (Manassas, VA) and were maintained in DMEM supplemented with 10% FCS, 4 mM L-Gln, 1 mM sodium pyruvate, 100 U/mL penicillin, 1 μg/mL streptomycin. Human HK1 and HK2 plasmids were purchased from Addgene (Cambridge, MA) and were purified from E. Coli. VDAC1 was purified from sheep liver mitochondria as described (Arbel et al. 2012, incorporated herein by reference). Human skin tissue microarray (SK208 and SK 805) were purchased from US Biomax Inc. (Rockville, MD).
Studies were conducted on Nanotemper Monolith NT.115 (Munich, Germany). HK1 and HK2 were labeled using Monolith™ NT.115 Protein Labeling Kit BLUE-NHS. As a preliminary study to form the VDAC1-HK complexes, various concentrations of VDAC1 were added to 67 nM HK1 or 71 nM HK2. The preferred VDAC1 concentration was determined to be 1.5 μM. For dissociation studies, HKs were pre-incubated with VDAC1 for 10 minutes and various concentrations of Formula C were added for an additional 10 minutes. MST default parameters were used and analysis was with Nanotemper analysis software. […]
The activity of Formula C in a cell-free assay was evaluated using Microscale Thermophoresis (MST) analysis, which is based on altered movement of a protein in a temperature gradient when bound to other molecules. […]

A431 cells = assay: Apoptosis: cleaved caspase-3 ELISA, A431 cells; format: cell-based, human; conditions: within 6 hours of treatment
Method: Apoptosis induction was determined by semi-quantification of cytochrome C levels in the mitochondrial fraction analyzed by WB, following 2 hours of treatment with Formula C in A431 cells. Cleaved caspase-3 levels were analyzed following 6 hours of Formula C treatment in A431 cells, using PathScan® Cleaved Caspase-3 Sandwich ELISA kit (CST, Danvers, MA).

CTCL cell line MJ = assay: PrestoBlue cell viability, MJ; format: cell-based, human; conditions: 72 hours, read-out: absolute IC50, cell viability
Method: Cutaneous T-cell lymphoma (CTCL) cell lines MJ and Hut78 were purchased from ATCC (CRL-8294, and TIB-161, respectively). Cells were grown in Iscove's Modified Dulbecco's Media supplemented with 2 mM L-glutamine, 10% fetal bovine serum, 100 U/mL of penicillin and 0.1 mg/mL of streptomycin.
Cells (1-2×10^4) were seeded in 96-well plates and treated with Formula C. Cell viability was determined 72 hours later using PrestoBlue reagent according to manufacturer's instruction (Life Technologies). The percentage of viability was expressed according to the fluorescence emitted by Formula C-treated cells compared to DMSO-treated control cells. The florescence emission values at 590 nm were measured with the plate-reader Spark 10M—multimode microplate reader (TECAN).

[8] = Phase 2a in subjects with actinic keratosis, pharmacokinetics; format: in vivo, human; conditions: subjects with AK; topical application
Method: The Phase 2 clinical trial was a multiple-center randomized, double-blind, placebo-controlled, parallel-cohorts study to evaluate the efficacy, safety, tolerability, and pharmacokinetics of once-daily application of topical Formula C ointment (QD 200 mg) for 28 days in subjects with actinic keratosis. Subjects were followed for one or two months after they completed treatment (through day 56 or day 84). The primary and exploratory efficacy endpoints for the study were reduction in the number of lesions on days 56 and 84, respectively. Subjects were randomly assigned in a double-blind fashion to one of three parallel treatment cohorts (5%, or 10% Formula C, or placebo) at a ratio of 1:1:1. To qualify for the study, subjects aged 18 (inclusive) or older must have had 4-8 discrete Grade 1 or 2 AK lesions within a 25-centimeter squared area of the skin of their scalp or face. The study enrolled 93 subjects in the US and Israel.

Question: Which results are given for `CC/C=C\CC1C(=O)CCC1CC(=O)Oc1cccc2cccnc12` (centres unmarked) [Formula C]?
Answer: pIC50 (Colon CXF 280): 5.26; pIC50 (Colon CXF HCT 116): 5.36; pIC50 (Head & Neck HNXF 908): 5.41; pIC50 [1]: 5.92; pIC50 [2]: 5.85; pIC50 [3]: 5.86; pIC50 (Lung (SCLC) LXFS 538): 6.79; pIC50 [4]: 6.08; pIC50 (Lung (SCLC) LXFS NCI-H82): 5.75; pIC50 (Lung (SCLC) LXFS 2156): 5.45; pIC50 [5]: 6.00; pIC50 [6]: 5.89; pIC50 (Prostate PRXF MRI-H-1579): 5.78; pIC50 (Pancreas PAXF 736): 5.76; pIC50 (Skin SCC VXF A-431): 6.44; pIC50 [7]: > 6.00; pIC50 (VDAC1/HK2 complex): 7.04; cellular levels of cleaved caspase-3 (A431 cells): increase in cellular levels of cleaved caspase-3; pIC50 (CTCL cell line MJ): 5.75; systemic exposure of VDA-1102 or its major metabolite [8]: No systemic exposure

Source: patent publication US12527782B2, “Use of hexokinase 2/mitochondria-detaching compounds for treating hexokinase-2 (HK2)-expressing cancers” (Vidac Pharma Ltd., priority 2016, dated 2026)
